According to US20220048873A1, “PESTICIDALLY ACTIVE C[…] AMIDE DERIVATIVES” (SYNGENTA CROP PROTECTION AG, priority 2018, published 2022):

Assays:
Type in all cases: in vivo
[1] = test system: Euschistus heros (Neotropical Brown Stink Bug); experiment: Euschistus heros feeding/contact activity on sprayed soybean leaves; details: 120 h, application rate of 200 ppm, N2 nymphs, 5 days after infestation
Experimental: Soybean leaves on agar in 24-well microtiter plates were sprayed with aqueous test solutions prepared from 10,000 ppm DMSO stock solutions. After drying the leaves were infested with N2 nymphs. The samples were assessed for mortality 5 days after infestation.

[2] = test system: Plutella xylostella (Diamond Back Moth); experiment: Plutella xylostella feeding/contact activity on treated artificial diet; details: 192 h, application rate of 200 ppm, eggs, 8 days after infestation
Experimental: 24-well microtiter plates with artificial diet were treated with aqueous test solutions prepared from 10,000 ppm DMSO stock solutions by pipetting. After drying, Plutella eggs were pipetted through a plastic stencil onto a gel blotting paper and the plate was closed with it. The samples were assessed for mortality 8 days after infestation.

[3] = test system: Spodoptera littoralis (Egyptian Cotton Leaf Worm); experiment: Spodoptera littoralis control on sprayed cotton leaf discs; details: foliar, 72 h, application rate of 200 ppm, L1 larvae, 3 days after infestation, read-out: control (at least one of mortality, anti-feedant effect, growth inhibition)
Experimental: Cotton leaf discs were placed onto agar in 24-well microtiter plates and sprayed with aqueous test solutions prepared from 10′000 ppm DMSO stock solutions. After drying the leaf discs were infested with five L1 larvae. The samples were assessed for mortality, anti-feeding effect, and growth inhibition in comparison to untreated samples 3 days after infestation. Control of Spodoptera littoralis by a test sample is given when at least one of the categories mortality, anti-feedant effect, and growth inhibition is higher than the untreated sample.

COC(=O)OCN(CC1(C#N)CC1)C(=O)c1ccc(C2=NO[C@@](c3cc(Cl)c(F)c(Cl)c3)(C(F)(F)F)C2)cc1C [A1, [(1-cyanocyclopropyl)methyl-[4-[(5S)-5-(3,5-dichloro-4-fluoro-phenyl)-5-(trifluoromethyl)-4H-isoxazol-3-yl]-2-methyl-benzoyl]amino]methyl Methyl Carbonate]
≥ 80%: mortality at 200 ppm [1] | mortality at 200 ppm [2] | percent control (mortality, anti-feedant effect or growth inhibition) at 200 ppm [3]

CCOC(=O)OCN(CC1(C#N)CC1)C(=O)c1ccc(C2=NO[C@@](c3cc(Cl)c(F)c(Cl)c3)(C(F)(F)F)C2)cc1C [A2, [(1-cyanocyclopropyl)methyl-[4-[(5S)-5-(3,5-dichloro-4-fluoro-phenyl)-5-(trifluoromethyl)-4H-isoxazol-3-yl]-2-methyl-benzoyl]amino]methyl ethyl carbonate]
≥ 80%: mortality at 200 ppm [1] | mortality at 200 ppm [2] | percent control (mortality, anti-feedant effect or growth inhibition) at 200 ppm [3]
